Assay results published in PMC3724985, “Isolation, biochemical characterization, and cloning of a bacteriocin from the poultry-associated Staphylococcus aureus strain CH-91” (Applied Microbiology and Biotechnology, 2012).
Values after ≈ are worked out from the molar mass of the structure shown.

Experiments:
Micrococcus luteus CBM = assay: MIC, micro-dilution method; assay type: cell-based; conditions: M. luteus CBM, CLSI M7-A7, cation-adjusted MHB
Text: (§1) S. aureus CH-91 was kindly provided by S. Takeuchi from Fukui Prefectural University, Japan (Takeuchi et al. [1999]). The strain has been deposited in the DSMZ collection under the number DSM 26258. Bacillus licheniformis NCTC 7224, Bacillus subtilis ATCC 6633, Lactococcus lactis subsp. lactis LOCK 0869, Micrococcus luteus strains DSMZ 20030 and CBM (clinical isolate), Sarcina lutea ATCC 9341, S. aureus strains ATCC 25923, M-122 (Polakowska et al. [2012]), Newman and RN4220, S. epidermidis ATCC 35347, Staphylococcus intermedius ATCC 29666, Staphylococcus pseudintermedius LMG 22219 (Devriese et al. [2005]), Staphylococcus saprophyticus ATCC 49453, Staphylococcus xylosus strains isolated from the skin of healthy chickens, Streptococcus mutans ATCC 25175, Streptococcus pneumoniae ATCC 49619, Escherichia coli K12 ATCC 10798, Klebsiella pneumoniae, Serratia marcescens, and Sphingomonas sp. AMC 3962 (Dziga et al. [2012]) were obtained from the collections of The Faculty of Biochemistry, Biophysics and Biotechnology, Jagiellonian University, Krakow, Poland. […]
(§2) The bactericidal activity of BacCH91 was determined using the micro-dilution method in compliance with Clinical and Laboratory Standards Institute guidelines M7-A7 (CLSI [2006]). […] After overnight incubation at 37 °C, the optical density (OD) at 600 nm was measured. […]

[1] = tested on: Micrococcus luteus DSMZ 20030; assay: MIC, micro-dilution method; assay type: cell-based; conditions: M. luteus DSMZ 20030, as printed in the text, CLSI M7-A7, cation-adjusted MHB
Text: as §1, §2

[2] = tested on: Staphylococcus intermedius ATCC 29663; assay type: cell-based
[3] = tested on: Pseudomonas aeruginosa ATCC 27853; assay type: cell-based
staphylococcal strains = assay type: cell-based, Staphylococcus spp.
Text: as §1, §2

staphopain C (StpC) = conditions: 30 μM, 100 mM bis-Tris pH 6.4 or Tris–HCl pH 7.5 with 5 mM cysteine hydrochloride and 5 mM EDTA, 1:20 by weight, 1 h at 37 °C; radial diffusion assay and HPLC
Protocol: (§3) For pH, temperature, and protease resistance assays, the residual activity of BacCH91 was determined using the radial diffusion assay (Lemos Miguel et al. [2008]). In brief, plates were prepared containing 200× diluted overnight culture of S. lutea ATCC 9341 in TSB agar (1 %, w/v). Wells (2.4 mm diameter) were cut in the agar and filled with 10 μl of the BacCH91 preparation for testing. Following overnight incubation at 37 °C, the residual activity was measured as the diameter of inhibition zones.
(§4) We evaluated the susceptibility of BacCH91 to proteolysis by aureolysin; staphopains A, B, and C; V8 peptidase (Biocentrum); bovine alpha-chymotrypsin and TPCK-treated trypsin (Sigma); human elastase and cathepsin G (Biocentrum); pepsin from porcine gastric mucosa (Sigma); and proteinase K (A&A Biotechnology). […] The residual activity was determined with the radial diffusion assay using S. lutea as an indicator strain, and the bacteriocin molecule integrity was assessed using HPLC. […]

[4] = tested on: staphylococcal extracellular peptidases (aureolysin; staphopains A, B, and C; V8 peptidase); conditions: 30 μM, pH 6.4 or pH 7.5/7.8, enzyme/bacteriocin 1:20 by weight, 1 h at 37 °C; radial diffusion assay and HPLC; triplicate
Protocol: as §3, §4

StpC = assay: Influence of StpC on biosynthesis and stability of BacCH91 in S. aureus CH-91 culture (E-64, HPLC); conditions: S. aureus CH-91 in TSB with or without E-64 (0.01, 0.1, 1.0 mM); samples at 5, 10, 24 h; HPLC peak area at 220 nm
Protocol: S. aureus CH-91 was cultured at 37 °C in TSB supplemented with the cysteine peptidase inhibitor E-64 (1-[N-[(L-3-trans-carboxyoxirane-2-carbonyl)-L-leucyl] amino]-4-guanidinobutane; Sigma) at final concentrations of 1.0, 0.1, and 0.01 mM. Aliquots were removed at 5, 10, and 24 h, and the bacteria-free supernatants were obtained by centrifugation.
To estimate the level of BacCH91, the collected supernatants were acidified with TFA (1 % final concentration, v/v) and filtered (0.45 μm filter). Aliquots (30 μl) were analyzed using HPLC (Kromasil C4 column, 250 × 4.6 mm; Supelco) and the same buffers as those used during the purification procedure. The column was flushed for 5 min following injection at a constant concentration of 34 % B. A linear gradient from 34 to 100 % B was then applied over 10 min at 1 ml/min. Under these conditions, BacCH91 was detected at 220 nm as a single peak eluting with a retention time of 14.6 min. The relative amount of bacteriocin was calculated as the area under the peak.

## C/C=C(\NC(=O)[C@H](CCCCN)NC(=O)CNC(=O)[C@@H]1CS[C@@H](C)[C@@H](NC(=O)[C@@H]2CSC[C@@H](NC(=O)/C(=C/C)NC(=O)[C@@H](N)[C@@H](C)CC)C(=O)N[C@@H](Cc3ccccc3)C(=O)N[C@@H]([C@@H](C)CC)C(=O)NCC(=O)N2)C(=O)N2CCC[C@H]2C(=O)NCC(=O)N1)C(=O)NCC(=O)N[C@@H]1CSC[C@@H]2NC(=O)[C@H](Cc3ccccc3)NC(=O)[C@@H](CS/C=C\NC2=O)NC(=O)[C@H](CC(N)=O)NC(=O)[C@H](Cc2ccccc2)NC1=O [BacCH91]
Micrococcus luteus CBM
  MIC: 0.04 µM (≈ 0.0831 µg/mL)
[1]
  MIC: 0.0025 µM (≈ 0.00519 µg/mL)
[2]
  MIC: 1.6 µM (≈ 3.32 µg/mL)
[3]
  MIC: >100 µM
Staphylococcal strains
  MIC: 1.3 to 6.0 µM
Staphopain C (StpC)
  effect of StpC on BacCH91: not affected
[4]
  effect of staphylococcal peptidases on BacCH91: not affected
StpC
  effect of StpC on the stability of the lantibiotic in culture: does not affect the stability
